Data published in paper PMC7693160 (Pharmaceutics, 2020).
Where “and” joins values, the source holds several entries; their conditions need not be identical. Identical values can stand only once. Like-named read-outs stand apart in the source and are kept apart here. Marks after values point to notes of the source that are not given here.

Legend:
[1] = physchem; assay type: physicochemical
Description: An experimental estimate of FLU pKa was obtained by fitting the Henderson–Hasselbalch equation (Equation (1)) to the mean aqueous equilibrium solubility (Si) values using the SIVA Toolkit version 3.0 (SIVA 3; Certara, Simcyp Division; Sheffield, UK). The lowest reported value in buffers was assumed to represent the intrinsic solubility (S0) . The pKa was then compared with values available in the literature to confirm the validity of the aqueous solubility parameter estimates. (1) Si=S0·10 ^pH−pKa The impact of bile salt concentration BS and subsequent formation of micelles on the solubility of FLU was investigated. […] Estimates of the logarithm of the micelle-water partition coefficient for the neutral Km:w,unionized and ionized drug Km:w,ionized were obtained to quantify the micelle-mediated solubility. […] Estimation of the relevant parameters was performed using the Nelder–Mead algorithm with weighting by the reciprocal of the predicted values. All estimates based on the in vitro solubility data were used as in silico input parameters for the development of the physiologically based pharmacokinetic (PBPK) model.

[2] = test system: CYP2C9 3*/3*; conditions: Recombinant CYP (fu,mic = 1), cited from earlier work
[3] = In vitro dissolution, USP II paddle apparatus; assay type: physicochemical
Experimental: All dissolution tests were performed using a calibrated USP II (paddle) apparatus (Erweka DT 80, Heusenstamm, Germany) at 37 ± 0.4 °C. Each vessel contained 500 mL of fresh, pre-warmed medium and the rotational speed was set at 75 rpm. Samples were withdrawn at 2.5, 5, 10, 15, 20, 30, 45, 60, 90, and 120 min via a 5 mL glass syringe connected to a stainless-steel cannula containing a 10 μm polyethylene cannula filter. Immediately thereafter, the sample was filtered through a 0.45 μm PTFE filter (ReZist 30, GE Healthcare UK Ltd., Buckinghamshire, United Kingdom), discarding the first 2 mL. The filtrate was immediately diluted with mobile phase and analyzed by HPLC-UV (see Section 2.5). The removal of 5 mL at each sampling time was considered in the calculation of the percentage dissolved. All experiments were performed at least in triplicate (n ≥ 3) and the final pH in the vessel was recorded.
Samples obtained from solubility and dissolution experiments were first filtered through a 0.45 μm PTFE filter (ReZist 30 syringe filter or Uniprep; Whatman, Piscataway, NJ, USA) and subsequently, after appropriate dilution with mobile phase, analyzed by HPLC-UV (Hitachi Chromaster; Hitachi Ltd., Tokyo, Japan or Spectra System HPLC, ThermoQuest Inc., San Jose, CA, USA). A BDS Hypersil C18, 5 μm, 150 × 4.6 mm (Thermo Scientific, Waltham, MA, United States) analytical column combined with a pre-column (BDS Hypersil C-18, 3μm, 10 × 4mm) was used. The mobile phase consisted of water adjusted to pH = 3.0 with trifluoroacetic acid (TFA) and acetonitrile (49.5:0.5:50% v/v). The detection wavelength was set at 247 nm, the flow rate at 1.0 mL/min, and the injection volume at 20 μL. Using this method, the retention time was approximately 6.8 min. The limit of detection (LOD) and quantification (LOQ) were 0.03 and 0.05 μg/mL, respectively.

[4] = test system: Caco-2 cells; conditions: cited from earlier work
[5] = test system: CYP2C9 1*/2*
[6] = cited from earlier work
[7] = 1st value, ref Lee et al. (2003) as printed
[8] = 2nd value, ref Lee et al. (2015) as printed
[9] = po sol s.d. 40 mg, CYP2C9 1*/1*
[10] = po sol s.d. 40 mg, CYP2C9 1*/3*
[11] = po tab (Froben) s.d. 100 mg, ref 4
[12] = po tab (Froben) s.d. 100 mg, ref 38
[13] = po tab s.d. 50 mg, CYP2C9 1*/1*
[14] = po tab s.d. 50 mg, CYP2C9 1*/1*, median
[15] = po tab s.d. 50 mg, CYP2C9 1*/2*
[16] = po tab s.d. 50 mg, CYP2C9 1*/3*
[17] = po tab s.d. 50 mg, CYP2C9 1*/3*, median
[18] = po tab s.d. 50 mg, CYP2C9 3*/3*, individual values (n = 2)

CC(C(=O)O)c1ccc(-c2ccccc2)c(F)c1 (centres unmarked) [flurbiprofen]
pKa [1]: 4.05 | CYP2C9 3*/3*-Vmax [2]: 8.901 pmol/min/pmol CYP | Km ([2]; read-out: CYP2C9 3*/3*-Km): 23.2 µM | maximum dissolved ([3]; FaSSGF Level I, 100 mg): 5.5% | plateau of in vitro release ([3]; FaSSGF Levels I and III, 100 mg): around 8.3 % of the dose | time to 85% dissolved ([3]; FaSSIF V3 Level I (without bile components)): 60 min | time to >85% dissolved ([3]; FaSSIF V3 Level II): ≤ 2.5 min | time to >85% dissolved ([3]; Ph. Eur. phosphate buffer (pH 6.8)): ≤ 15 min | Papp, Caco-2 [4]: 201 nm/s | CYP2C9 1*/2*-Vmax [5]: 11.53 pmol/min/pmol CYP | observed decrease in CYP2C9 1*/3* clearance [6, 7]: about 37% | observed increase in AUC, CYP2C9 1*/3* [6, 7]: 1.62 fold | observed decrease in CYP2C9 1*/3* clearance [6, 8]: ~44% | observed increase in AUC, CYP2C9 1*/3* [6, 8]: 1.74 fold | observed decrease in clearance ([6]; CYP2C9 1*/2* individuals): about 27% | observed decrease in clearance ([6]; CYP2C9 1*/3* individuals): ~40% | Fox ([6]; PBPK input): 0.71 | Clrenal [6]: 0.066 L/h | steady-state volume of distribution (Vss) [6]: around 0.1 L/kg | fmCYP2C9 ([6]; contribution to overall metabolic clearance): 0.71 | CYP2C9 metabolic contribution ([6]; human, in vivo): at least 71% | absolute bioavailability ([6]; human, in vivo): ~ 95% | eliminated through metabolic oxidation to 4-hydroxy FLU ([6]; human, in vivo): > 71 % of the dose | AUCinf obs ([6]; iv s.d. 50 mg): 35.2 mg·h/L | fmCYP2C9 ([6]; metabolism by polymorphic CYP2C9): ≥ 0.71 | dose excreted into urine as acyl glucuronide of (R)-FLU ([6]; oral racemic FLU): 8.4% | dose excreted into urine as acyl glucuronide of (S)-FLU ([6]; oral racemic FLU): 7.3% | AUCinf obs ([6]; po orod s.d. 150 mg): 129.8 mg·h/L | Cmax obs ([6]; po orod s.d. 150 mg): 16.8 mg/L | AUCinf obs [6, 9]: 29.3 mg·h/L | CL/F obs [6, 9]: 1.39 L/h | Cmax obs [6, 9]: 5.54 mg/L | AUCinf obs [6, 10]: 47.6 mg·h/L | CL/F obs [6, 10]: 0.88 L/h | Cmax obs [6, 10]: 6.93 mg/L | AUCinf obs ([6]; po sol s.d. 67.9 mg): 55.1 mg·h/L | Cmax obs ([6]; po sol s.d. 67.9 mg): 10.8 mg/L | AUCinf obs ([6]; po sol s.d. 100 mg): 82.7 mg·h/L | CL/F obs ([6]; po sol s.d. 100 mg): 1.28 L/h | Cmax obs ([6]; po sol s.d. 100 mg): 14.2 mg/L | AUCinf obs ([6]; po tab (Ansaid) s.d. 100 mg): 80.5 mg·h/L | Cmax obs ([6]; po tab (Ansaid) s.d. 100 mg): 12.8 mg/L | AUCinf obs ([6]; po tab (Ansaid) s.d. 200 mg): 161.3 mg·h/L | CL/F obs ([6]; po tab (Ansaid) s.d. 200 mg): 1.32 L/h | Cmax obs ([6]; po tab (Ansaid) s.d. 200 mg): 21.4 mg/L | AUCinf obs ([6]; po tab (Ansaid) s.d. 300 mg): 233.9 mg·h/L | CL/F obs ([6]; po tab (Ansaid) s.d. 300 mg): 1.36 L/h | Cmax obs ([6]; po tab (Ansaid) s.d. 300 mg): 29.5 mg/L | AUCinf obs [6, 11]: 87.8 mg·h/L | CL/F obs [6, 11]: 1.27 L/h | Cmax obs [6, 11]: 13.2 mg/L | AUCinf obs [6, 12]: 82.3 mg·h/L | Cmax obs [6, 12]: 13.3 mg/L | AUCinf obs [6, 13]: 29.4 mg·h/L | CL/F obs [6, 13]: 1.77 L/h | Cmax obs [6, 13]: 5.38 mg/L | AUCinf obs [6, 14]: 30.8^a mg/L·h | CL/F obs [6, 14]: 1.6 ^a L/h | Cmax obs [6, 14]: 6.1 ^a mg/L | AUCinf obs [6, 15]: 40.7 mg·h/L | CL/F obs [6, 15]: 1.30 L/h | Cmax obs [6, 15]: 4.55 mg/L | AUCinf obs [6, 16]: 51.1 mg·h/L | CL/F obs [6, 16]: 1.00 L/h | Cmax obs [6, 16]: 5.42 mg/L | AUCinf obs [6, 17]: 53.7 ^a mg/L·h | CL/F obs [6, 17]: 0.9 ^a L/h | Cmax obs [6, 17]: 8.9 ^a mg/L | AUCinf obs [6, 18]: 85.8 mg·h/L and 119 mg·h/L | CL/F obs [6, 18]: 0.6 L/h and 0.4 L/h | Cmax obs [6, 18]: 8 mg/L and 9.4 mg/L | AUCinf obs ([6]; po tab s.d. 100 mg): 67.7 mg·h/L | CL/F obs ([6]; po tab s.d. 100 mg): 1.52 L/h | Cmax obs ([6]; po tab s.d. 100 mg): 12.9 mg/L | AUCinf obs ([6]; po tab s.d. 150 mg): 124.3 mg·h/L | Cmax obs ([6]; po tab s.d. 150 mg): 15.2 mg/L | fraction absorbed (fa) ([6]; small intestine): greater than 95%
